Data reported in the supplement of paper PMC5908809.

Experiments:
NK-YS (IL-2 2.5 ng/mL) [1] = test: drug sensitivity score (DSS) (DSS units); higher = more sensitive; extreme values may be limits of the assay; conditions: 72 h
IMC-1 (IL-2 20 ng/mL) [2] = test: as above; conditions: 72 h
[3] = tested on: normal primary NK cells, pool 3 (3 donors) (IL-2 2.5 ng/mL); test: as above; conditions: 72 h
KHYG-1 (IL-2 2.5 ng/mL) [4] = test: as above; conditions: 72 h
NK-92 (IL-2 2.5 ng/mL) [5] = test: as above; conditions: 72 h
[6] = tested on: normal primary NK cells, pool 1 (3 donors) (IL-2 2.5 ng/mL); test: as above; conditions: 72 h
DERL-7 (IL-2 2.5 ng/mL) [7] = test: as above; conditions: 72 h
[8] = tested on: normal primary NK cells, pool 2 (3 donors) (IL-2 2.5 ng/mL); test: as above; conditions: 72 h
SNK-6 (IL-2 2.5 ng/mL) [9] = test: as above; conditions: 72 h
[10] = tested on: normal primary NK cells, pool 1 (3 donors), resting (IL-2 0 ng/mL); test: as above; conditions: 72 h
KAI3 (IL-2 2.5 ng/mL) [11] = test: as above; conditions: 72 h
NKL (IL-2 2.5 ng/mL) [12] = test: as above; conditions: 72 h
YT (IL-2 2.5 ng/mL) [13] = test: as above; conditions: 72 h
NK-YS (IL-2 2.5 ng/mL) [14] = test: percent inhibition of viability; higher = more inhibition; conditions: 72 h
IMC-1 (IL-2 20 ng/mL) [15] = test: as above; conditions: 72 h
[16] = tested on: normal primary NK cells, pool 3 (3 donors) (IL-2 2.5 ng/mL); test: as above; conditions: 72 h
KHYG-1 (IL-2 2.5 ng/mL) [17] = test: as above; conditions: 72 h
NK-92 (IL-2 2.5 ng/mL) [18] = test: as above; conditions: 72 h
[19] = tested on: normal primary NK cells, pool 1 (3 donors) (IL-2 2.5 ng/mL); test: as above; conditions: 72 h
DERL-7 (IL-2 2.5 ng/mL) [20] = test: as above; conditions: 72 h
[21] = tested on: normal primary NK cells, pool 2 (3 donors) (IL-2 2.5 ng/mL); test: as above; conditions: 72 h
SNK-6 (IL-2 2.5 ng/mL) [22] = test: as above; conditions: 72 h
[23] = tested on: normal primary NK cells, pool 1 (3 donors), resting (IL-2 0 ng/mL); test: as above; conditions: 72 h
KAI3 (IL-2 2.5 ng/mL) [24] = test: as above; conditions: 72 h
NKL (IL-2 2.5 ng/mL) [25] = test: as above; conditions: 72 h
YT (IL-2 2.5 ng/mL) [26] = test: as above; conditions: 72 h
[27] = tested on: normal NK cells expanded with K562-aAPC; test: as above; conditions: 72 h, IL-2 2.5 ng/mL
Method: (§1)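 Drug sensitivity and resistance testing on K562-aAPC-expanded normal NK cells: 5 concentrations (10-fold steps over a 10,000-fold range), 72 h at 37 °C, viability by CellTiter-Glo normalised to DMSO and benzethonium chloride controls; DSS from the fitted curve.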

[28] = tested on: normal NK cells expanded with K562-aAPC; test: drug sensitivity score (DSS) (DSS units); higher = more sensitive; extreme values may be limits of the assay; conditions: 72 h; IL-2 2.5 ng/mL
Method: as §1

Oc1ncnc2[nH]ncc12 [Allopurinol] (max concentration tested 10000 nM)
Conditions	drug sensitivity score
DERL-7 (IL-2 2.5 ng/mL) [7]	0
IMC-1 (IL-2 20 ng/mL) [2]	0.55
KAI3 (IL-2 2.5 ng/mL) [11]	0
KHYG-1 (IL-2 2.5 ng/mL) [4]	0
NK-92 (IL-2 2.5 ng/mL) [5]	3.57
NK-YS (IL-2 2.5 ng/mL) [1]	1.14
NKL (IL-2 2.5 ng/mL) [12]	4.59
SNK-6 (IL-2 2.5 ng/mL) [9]	0
YT (IL-2 2.5 ng/mL) [13]	0.33
[3]	0
[6]	0
[8]	0
[10]	0
[28]	0.01

percent inhibition of viability [%]
Conditions	1 nM	10 nM	100 nM	1000 nM	10000 nM
DERL-7 (IL-2 2.5 ng/mL) [20]	2.01	4.75	3.34	1.14	-11.8
IMC-1 (IL-2 20 ng/mL) [15]	0.44	0.22	0.39	1.15	17.8
KAI3 (IL-2 2.5 ng/mL) [24]	17.2	10.9	9.45	11.5	25.8
KHYG-1 (IL-2 2.5 ng/mL) [17]	-9.33	-11.3	-5.44	-3.66	4.19
NK-92 (IL-2 2.5 ng/mL) [18]	6.41	11.2	3.55	20.5	30.9
NK-YS (IL-2 2.5 ng/mL) [14]	2.79	-1.6	-0.2	4.55	19.6
NKL (IL-2 2.5 ng/mL) [25]	1.32	3.75	2.9	25.9	26
SNK-6 (IL-2 2.5 ng/mL) [22]	11.9	-22.5	-2.24	-13.2	5.06
YT (IL-2 2.5 ng/mL) [26]	-7.85	-8.54	-5.69	-2.75	18
[16]	-2.7	8.19	6.53	0	8.15
[19]	-1.72	15.7	6.17	6.91	4.11
[21]	4.21	8.86	8.54	1.11	5.24
[23]	22.9	25.1	18.7	23.7	20.5
[27]	-3.35	-7.15	-3.73	3.65	10.3

CN(C)C1CCN(C(=O)c2ccc(NC(=O)Nc3ccc(-c4nc(N5CCOCC5)nc(N5CCOCC5)n4)cc3)cc2)CC1 [Gedatolisib] (max concentration tested 1000 nM)
Conditions	drug sensitivity score
DERL-7 (IL-2 2.5 ng/mL) [7]	17.5
IMC-1 (IL-2 20 ng/mL) [2]	1.45
KAI3 (IL-2 2.5 ng/mL) [11]	7.65
KHYG-1 (IL-2 2.5 ng/mL) [4]	2.77
NK-92 (IL-2 2.5 ng/mL) [5]	0.11
NK-YS (IL-2 2.5 ng/mL) [1]	12.7
NKL (IL-2 2.5 ng/mL) [12]	13.9
SNK-6 (IL-2 2.5 ng/mL) [9]	6.43
YT (IL-2 2.5 ng/mL) [13]	5.75
[3]	1.15
[6]	1.34
[8]	2.68
[10]	0.01
[28]	3.49

percent inhibition of viability [%]
Conditions	0.1 nM	1 nM	10 nM	100 nM	1000 nM
DERL-7 (IL-2 2.5 ng/mL) [20]	-6.47	3.75	20.5	81.6	96.8
IMC-1 (IL-2 20 ng/mL) [15]	1.19	4.03	-1.18	-2.3	34.8
KAI3 (IL-2 2.5 ng/mL) [24]	-4.82	-2.02	7.1	34.4	65.2
KHYG-1 (IL-2 2.5 ng/mL) [17]	3.45	0.68	6.16	4.39	40.9
NK-92 (IL-2 2.5 ng/mL) [18]	-8.45	-9.3	7.7	-10.2	15.7
NK-YS (IL-2 2.5 ng/mL) [14]	1.81	-3.05	18.4	56.5	75.3
NKL (IL-2 2.5 ng/mL) [25]	-11	-10.7	19.5	58.6	62
SNK-6 (IL-2 2.5 ng/mL) [22]	13	9.94	17.4	15.5	55.6
YT (IL-2 2.5 ng/mL) [26]	-1.35	-2.24	7.23	19.8	61.7
[16]	-10.1	-4.3	-0.54	0.15	27.5
[19]	4.43	-5.19	5.53	2.83	24.4
[21]	-16.6	-2.18	-0.9	7.29	33.2
[23]	4.88	-18.3	3.45	-12.4	12.5
[27]	-0.13	7.4	1.57	11	38
